Assay results reported in patent US6353019B1, “Macrocyclic lactones, compositions, and methods of use” (United States of America as represented by the Department …, priority 1997, dated 2002).

Assays:
COLO 205 = experiment: NCI 60 cell-line screen, COLO 205 (Colon); type: cell-based, human; conditions: averaged, quadruplicate testing, 48 h, SRB
Method: (§1) The NCI screen consists of a panel of 60 different human tumor cell lines against which compounds are tested over a defined range of concentrations to determine the relative degree of growth inhibition or cytotoxicity against each cell line. The design and operation of the screen is such that for each compound tested, both the absolute and relative sensitivities of individual cell lines comprising the screen are sufficiently reproducible that a characteristic profile or “fingerprint” of cellular response is generated. Compounds which are active in the NCI screen show pronounced differential tumor growth-inhibitory and/or cytotoxic effects to the diverse cell lines comprising the 60 cell-line panel. The degree of differential response between the most and least sensitive lines typically may be relatively small (e.g., 2- to 10-fold), or occasionally as great as 3-4 orders of magnitude. […]
(§2) In the screening assay, each agent is tested over a broad concentration range against every cell line in the panel. […] Test compounds are evaluated at five 10-fold dilutions. […] Optical densities are measured on automated plate readers, followed by computerized data acquisition, processing, storage, and availability for display and analysis. […]

MCF-7 = experiment: NCI 60 cell-line screen, MCF-7 (Breast); type: cell-based, human; conditions: averaged, quadruplicate testing, 48 h, SRB
Method: as §1, §2

M14 = experiment: NCI 60 cell-line screen, M14 (Melanoma); type: cell-based, human; conditions: averaged, quadruplicate testing, 48 h, SRB
Method: as §1, §2

OVCAR-3 = experiment: NCI 60 cell-line screen, OVCAR-3 (Ovary); type: cell-based, human; conditions: averaged, quadruplicate testing, 48 h, SRB
Method: as §1, §2

UACC-62 = experiment: NCI 60 cell-line screen, UACC-62 (Melanoma); type: cell-based, human; conditions: averaged, quadruplicate testing, 48 h, SRB
Method: as §1, §2

786-0 = experiment: NCI 60 cell-line screen, 786-0 (Kidney); type: cell-based, human; conditions: averaged, quadruplicate testing, 48 h, SRB
Method: as §1, §2

PC-3 = experiment: NCI 60 cell-line screen, PC-3 (Prostate); type: cell-based, human; conditions: averaged, quadruplicate testing, 48 h, SRB
Method: as §1, §2

HCT-116 = experiment: NCI 60 cell-line screen, HCT-116 (Colon); type: cell-based, human; conditions: averaged, quadruplicate testing, 48 h, SRB
Method: as §1, §2

K-562 = experiment: NCI 60 cell-line screen, K-562 (Leukemia); type: cell-based, human; conditions: averaged, quadruplicate testing, 48 h, SRB
Method: as §1, §2

NCI-H460 = experiment: NCI 60 cell-line screen, NCI-H460 (Lung); type: cell-based, human; conditions: averaged, quadruplicate testing, 48 h, SRB
Method: as §1, §2

SW-620 = experiment: NCI 60 cell-line screen, SW-620 (Colon); type: cell-based, human; conditions: averaged, quadruplicate testing, 48 h, SRB
Method: as §1, §2

NCI-H23 = experiment: NCI 60 cell-line screen, NCI-H23 (Lung); type: cell-based, human; conditions: averaged, quadruplicate testing, 48 h, SRB
Method: as §1, §2

MDA-N = experiment: NCI 60 cell-line screen, MDA-N (Breast); type: cell-based, human; conditions: averaged, quadruplicate testing, 48 h, SRB
Method: as §1, §2

HOP-92 = experiment: NCI 60 cell-line screen, HOP-92 (Lung); type: cell-based, human; conditions: averaged, quadruplicate testing, 48 h, SRB
Method: as §1, §2

HS-578T = experiment: NCI 60 cell-line screen, HS-578T (Breast); type: cell-based, human; conditions: averaged, quadruplicate testing, 48 h, SRB
Method: as §1, §2

SK-MEL-5 = experiment: NCI 60 cell-line screen, SK-MEL-5 (Melanoma); type: cell-based, human; conditions: averaged, quadruplicate testing, 48 h, SRB
Method: as §1, §2

SF-295 = experiment: NCI 60 cell-line screen, SF-295 (Brain); type: cell-based, human; conditions: averaged, quadruplicate testing, 48 h, SRB
Method: as §1, §2

CAKI-1 = experiment: NCI 60 cell-line screen, CAKI-1 (Kidney); type: cell-based, human; conditions: averaged, quadruplicate testing, 48 h, SRB
Method: as §1, §2

HCT-15 = experiment: NCI 60 cell-line screen, HCT-15 (Colon); type: cell-based, human; conditions: averaged, quadruplicate testing, 48 h, SRB
Method: as §1, §2

OVCAR-8 = experiment: NCI 60 cell-line screen, OVCAR-8 (Ovary); type: cell-based, human; conditions: averaged, quadruplicate testing, 48 h, SRB
Method: as §1, §2

OVCAR-5 = experiment: NCI 60 cell-line screen, OVCAR-5 (Ovary); type: cell-based, human; conditions: averaged, quadruplicate testing, 48 h, SRB
Method: as §1, §2

[1] = Stability of compounds and extracts in solvents and media; type: physicochemical
Excerpt: Therefore, all subsequent attempts at isolation avoided the use of chloroform or exposure of samples to CDCl3, and no further problems with decomposition or loss of bioactivity were encountered. Moreover, there was no indication of any instability of the pure isolated compounds in any of the other common organic solvents employed, nor in aqueous or biological media. Therefore, a typical isolation and purification of the salicylihalamides from the selected crude extract is as follows.

CCRF-CEM = experiment: NCI 60 cell-line screen, CCRF-CEM (Leukemia); type: cell-based, human; conditions: averaged, quadruplicate testing, 48 h, SRB
Method: as §1, §2

NCI-H322M = experiment: NCI 60 cell-line screen, NCI-H322M (Lung); type: cell-based, human; conditions: averaged, quadruplicate testing, 48 h, SRB
Method: as §1, §2

MCF-7-ADR-RES = experiment: NCI 60 cell-line screen, MCF-7-ADR-RES (Breast); type: cell-based, human; conditions: averaged, quadruplicate testing, 48 h, SRB
Method: as §1, §2

MALME-3M = experiment: NCI 60 cell-line screen, MALME-3M (Melanoma); type: cell-based, human; conditions: averaged, quadruplicate testing, 48 h, SRB
Method: as §1, §2

SNB-19 = experiment: NCI 60 cell-line screen, SNB-19 (Brain); type: cell-based, human; conditions: averaged, quadruplicate testing, 48 h, SRB
Method: as §1, §2

SK-MEL-2 = experiment: NCI 60 cell-line screen, SK-MEL-2 (Melanoma); type: cell-based, human; conditions: averaged, quadruplicate testing, 48 h, SRB
Method: as §1, §2

BT-549 = experiment: NCI 60 cell-line screen, BT-549 (Breast); type: cell-based, human; conditions: averaged, quadruplicate testing, 48 h, SRB
Method: as §1, §2

KM12 = experiment: NCI 60 cell-line screen, KM12 (Colon); type: cell-based, human; conditions: averaged, quadruplicate testing, 48 h, SRB
Method: as §1, §2

A498 = experiment: NCI 60 cell-line screen, A498 (Kidney); type: cell-based, human; conditions: averaged, quadruplicate testing, 48 h, SRB
Method: as §1, §2

salicylihalamide A
negative log10 GI50 (COLO 205): 8.07
negative log10 GI50 (MCF-7): 7.12
negative log10 GI50 (M14): 8.92
negative log10 GI50 (OVCAR-3): 7.03
negative log10 GI50 (UACC-62): 8.38
negative log10 GI50 (786-0): 7.92
negative log10 GI50 (PC-3): 7.51
negative log10 GI50 (HCT-116): 8.74
negative log10 GI50 (K-562): 8.41
negative log10 GI50 (NCI-H460): 9.01
negative log10 GI50 (SW-620): 7.54
negative log10 GI50 (NCI-H23): 6.55
negative log10 GI50 (MDA-N): 8.00
negative log10 GI50 (HOP-92): 7.77
negative log10 GI50 (HS-578T): 5.85
negative log10 GI50 (SK-MEL-5): 9.00
negative log10 GI50 (SF-295): 8.96
negative log10 GI50 (CAKI-1): 8.96
negative log10 GI50 (HCT-15): 8.44
negative log10 GI50 (OVCAR-8): 8.43
negative log10 GI50 (OVCAR-5): 8.11
stability in deuterated chloroform (CDCl3) [1]: sensitivity
negative log10 GI50 (CCRF-CEM): 7.89
negative log10 GI50 (NCI-H322M): 6.72
negative log10 GI50 (MCF-7-ADR-RES): 8.07
negative log10 GI50 (MALME-3M): 7.62
negative log10 GI50 (SNB-19): 6.47
negative log10 GI50 (SK-MEL-2): 7.47
negative log10 GI50 (BT-549): 9.30
negative log10 GI50 (KM12): 8.30
negative log10 GI50 (A498): 6.55
